Experimental findings from patent publication US20230093861A1, “RAPAMYCIN ANALOGS AS MTOR INHIBITORS” (Revolution Medicines, Inc., priority 2017, published 2023) are described below.

For assay [1], the system named is P-P70S6K (T389). Briefly: Cell based AlphaLISA assay, inhibition of P-P70S6K (T389) (mTORC1 substrate phosphorylation) in MDA-MB-468 cells. Conditions: Homo sapiens, 4 h, AlphaLISA, two to four hours at 37° C., read-out: pIC50 for Inhibition of mTORC1 and mTORC2 Substrate Phosphorylation, P-P70S6K-(T389) (converted). In outline:
(§1)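 IC50s come from control-normalized curve fits of duplicate Alpha signals. Cell lysates were probed with SureFire Ultra kits for mTORC1 substrates 4E-BP1 T37/46 and P70S6K T389 and mTORC2 substrate Akt S473 in MDA-MB-468 cells exposed to inhibitor.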

The subject of assay [2] is P-4E-BP1 (T37/46). Briefly: Cell based AlphaLISA assay, inhibition of P-4E-BP1 (T37/46) (mTORC1 substrate phosphorylation) in MDA-MB-468 cells. Conditions: Homo sapiens, MDA-MB-468, 4 h, AlphaLISA, two to four hours at 37° C., read-out: pIC50 for Inhibition of mTORC1 and mTORC2 Substrate Phosphorylation, P-4E-BP1-(T37/46) (converted). In outline:
as §1
(Bead proximity is the source of the signal in Alpha formats.)

Assay [3] deals with P-Akt (S473). The assay is described as follows: Cell based AlphaLISA assay, inhibition of P-Akt (S473) (mTORC2 substrate phosphorylation) in MDA-MB-468 cells. The settings on record: Homo sapiens, MDA-MB-468, 4 h, AlphaLISA, two to four hours at 37° C., read-out: pIC50 for Inhibition of mTORC1 and mTORC2 Substrate Phosphorylation, p-AKT 1/2/3 -(S473) (converted). In outline:
as §1

Regarding `CO[C@H]1C[C@@H]2CC[C@@H](C)[C@@](O)(O2)C(=O)C(=O)N2CCCC[C@H]2C(=O)O[C@H]([C@H](C)C[C@@H]2CC[C@H](n3cc(-c4cccc(C(=O)NCCOCCOCCOCCC(=O)NCCOCCOCCOCCC(=O)NCCCCn5nc(-c6ccc7oc(N)nc7c6)c6c(N)ncnc65)c4)nn3)[C@H](OC)C2)CC(=O)[C@H](C)/C=C(\C)[C@@H](O)[C@@H](OC)C(=O)[C@H](C)C[C@H](C)/C=C/C=C/C=C/1C` [Example 137], the IC50 in assay [1] is 1 to 10 nM; in assay [2], 3.16 to 31.6 nM; in assay [3] it was 31.6 to 1000 nM.
Take `CO[C@H]1C[C@@H]2CC[C@@H](C)[C@@](O)(O2)C(=O)C(=O)N2CCCC[C@H]2C(=O)O[C@H]([C@H](C)C[C@@H]2CC[C@H](n3cc(-c4cccc(C(=O)NCCOCCOCCOCCC(=O)NCCOCCOCCOCCC(=O)NCCCCn5nc(-c6cc7cc(O)ccc7[nH]6)c6c(N)ncnc65)c4)nn3)[C@H](OC)C2)CC(=O)[C@H](C)/C=C(\C)[C@@H](O)[C@@H](OC)C(=O)[C@H](C)C[C@H](C)/C=C/C=C/C=C/1C` [Example 138]: the IC50 in assay [1] was 1 to 10 nM; in assay [2], greater than 1000 nM; in assay [3], 31.6 to 1000 nM.
Turning to `CO[C@H]1C[C@@H]2CC[C@@H](C)[C@@](O)(O2)C(=O)C(=O)N2CCCC[C@H]2C(=O)O[C@H]([C@H](C)C[C@@H]2CC[C@H](n3cc(-c4cccc(C(=O)NCCOCCOCCOCCC(=O)NCCOCCOCCOCCOCCC(=O)NCCCCn5nc(-c6ccc7oc(N)nc7c6)c6c(N)ncnc65)c4)nn3)[C@H](OC)C2)CC(=O)[C@H](C)/C=C(\C)[C@@H](O)[C@@H](OC)C(=O)[C@H](C)C[C@H](C)/C=C/C=C/C=C/1C` [Example 139], the figures for the IC50 in assay [1], in assay [2] and in assay [3] were 1 to 10 nM, 3.16 to 31.6 nM and 3.16 to 31.6 nM, respectively.
With `CO[C@H]1C[C@@H]2CC[C@@H](C)[C@@](O)(O2)C(=O)C(=O)N2CCCC[C@H]2C(=O)O[C@H]([C@H](C)C[C@@H]2CC[C@H](n3cc(-c4cccc(C(=O)NCCOCCOCCOCCC(=O)NCCOCCOCCOCCOCCC(=O)NCCCCn5nc(-c6cc7cc(O)ccc7[nH]6)c6c(N)ncnc65)c4)nn3)[C@H](OC)C2)CC(=O)[C@H](C)/C=C(\C)[C@@H](O)[C@@H](OC)C(=O)[C@H](C)C[C@H](C)/C=C/C=C/C=C/1C` [Example 140], the figures for the IC50 in assay [1], in assay [2] and in assay [3] were 1 to 10 nM, 3.16 to 31.6 nM and 31.6 to 1000 nM, respectively.
For `CO[C@H]1C[C@@H]2CC[C@@H](C)[C@@](O)(O2)C(=O)C(=O)N2CCCC[C@H]2C(=O)O[C@H]([C@H](C)C[C@@H]2CC[C@H](n3cc(-c4cccc(C(=O)NCCOCCOCCOCCOCCC(=O)NCCOCCOCCOCCOCCC(=O)NCCCCn5nc(-c6ccc7oc(N)nc7c6)c6c(N)ncnc65)c4)nn3)[C@H](OC)C2)CC(=O)[C@H](C)/C=C(\C)[C@@H](O)[C@@H](OC)C(=O)[C@H](C)C[C@H](C)/C=C/C=C/C=C/1C` [Example 141], in that order: 1 to 10 nM, 3.16 to 31.6 nM and 3.16 to 31.6 nM.
For `CO[C@H]1C[C@@H]2CC[C@@H](C)[C@@](O)(O2)C(=O)C(=O)N2CCCC[C@H]2C(=O)O[C@H]([C@H](C)C[C@@H]2CC[C@H](n3cc(-c4cccc(C(=O)NCCOCCOCCOCCOCCC(=O)NCCOCCOCCOCCOCCC(=O)NCCCCn5nc(-c6cc7cc(O)ccc7[nH]6)c6c(N)ncnc65)c4)nn3)[C@H](OC)C2)CC(=O)[C@H](C)/C=C(\C)[C@@H](O)[C@@H](OC)C(=O)[C@H](C)C[C@H](C)/C=C/C=C/C=C/1C` [Example 142], in that order: 1 to 10 nM, 3.16 to 31.6 nM and 31.6 to 1000 nM.
For `CO[C@H]1C[C@@H]2CC[C@@H](C)[C@@](O)(O2)C(=O)C(=O)N2CCCC[C@H]2C(=O)O[C@H]([C@H](C)C[C@@H]2CC[C@H](n3cc(COC(=O)NCCOCCOCCOCCC(=O)NCCOCCOCCC(=O)NCCCCn4nc(-c5ccc6oc(N)nc6c5)c5c(N)ncnc54)nn3)[C@H](OC)C2)C[C@@H](OC)[C@H](C)/C=C(\C)[C@@H](O)[C@@H](OC)C(=O)[C@H](C)C[C@H](C)/C=C/C=C/C=C/1C` [Example 143], in that order: 1 to 10 nM, 31.6 to 1000 nM and greater than 1000 nM.
On to `CO[C@H]1C[C@@H]2CC[C@@H](C)[C@@](O)(O2)C(=O)C(=O)N2CCCC[C@H]2C(=O)O[C@H]([C@H](C)C[C@@H]2CC[C@H](n3cc(COC(=O)NCCOCCOCCOCCC(=O)NCCOCCOCCC(=O)NCCCCn4nc(-c5cc6cc(O)ccc6[nH]5)c5c(N)ncnc54)nn3)[C@H](OC)C2)C[C@@H](OC)[C@H](C)/C=C(\C)[C@@H](O)[C@@H](OC)C(=O)[C@H](C)C[C@H](C)/C=C/C=C/C=C/1C` [Example 144], for which the results for the IC50 in assay [1], in assay [2] and in assay [3] were 10 to 1000 nM, greater than 1000 nM and greater than 1000 nM, respectively.
In the case of `CO[C@H]1C[C@@H]2CC[C@@H](C)[C@@](O)(O2)C(=O)C(=O)N2CCCC[C@H]2C(=O)O[C@H]([C@H](C)C[C@@H]2CC[C@H](n3cc(COC(=O)NCCOCCOCCOCCC(=O)NCCOCCOCCOCCC(=O)NCCCCn4nc(-c5ccc6oc(N)nc6c5)c5c(N)ncnc54)nn3)[C@H](OC)C2)C[C@@H](OC)[C@H](C)/C=C(\C)[C@@H](O)[C@@H](OC)C(=O)[C@H](C)C[C@H](C)/C=C/C=C/C=C/1C` [Example 145], the IC50 in assay [1] is 1 to 10 nM; in assay [2], 31.6 to 1000 nM; in assay [3] it was greater than 1000 nM.
For `CO[C@H]1C[C@@H]2CC[C@@H](C)[C@@](O)(O2)C(=O)C(=O)N2CCCC[C@H]2C(=O)O[C@H]([C@H](C)C[C@@H]2CC[C@H](n3cc(COC(=O)NCCOCCOCCOCCC(=O)NCCOCCOCCOCCC(=O)NCCCCn4nc(-c5cc6cc(O)ccc6[nH]5)c5c(N)ncnc54)nn3)[C@H](OC)C2)C[C@@H](OC)[C@H](C)/C=C(\C)[C@@H](O)[C@@H](OC)C(=O)[C@H](C)C[C@H](C)/C=C/C=C/C=C/1C` [Example 146], in that order: 1 to 10 nM, greater than 1000 nM and greater than 1000 nM.
For `CCO[C@@H]1C[C@@H]([C@H](C)C[C@@H]2CC[C@H](n3cc(COC(=O)NCCOCCOCCOCCC(=O)NCCOCCOCCC(=O)NCCCCn4nc(-c5ccc6oc(N)nc6c5)c5c(N)ncnc54)nn3)[C@H](OC)C2)OC(=O)[C@@H]2CCCCN2C(=O)C(=O)[C@]2(O)O[C@@H](CC[C@H]2C)C[C@H](OC)/C(C)=C/C=C/C=C/[C@@H](C)C[C@@H](C)C(=O)[C@H](OC)[C@H](O)/C(C)=C/[C@H]1C` [Example 147], in that order: 10 to 1000 nM, 31.6 to 1000 nM and greater than 1000 nM.
Consider `CCO[C@@H]1C[C@@H]([C@H](C)C[C@@H]2CC[C@H](n3cc(COC(=O)NCCOCCOCCOCCC(=O)NCCOCCOCCC(=O)NCCCCn4nc(-c5cc6cc(O)ccc6[nH]5)c5c(N)ncnc54)nn3)[C@H](OC)C2)OC(=O)[C@@H]2CCCCN2C(=O)C(=O)[C@]2(O)O[C@@H](CC[C@H]2C)C[C@H](OC)/C(C)=C/C=C/C=C/[C@@H](C)C[C@@H](C)C(=O)[C@H](OC)[C@H](O)/C(C)=C/[C@H]1C` [Example 148], for which the IC50 in assay [1] is 10 to 1000 nM; in assay [2], greater than 1000 nM; in assay [3] it was greater than 1000 nM.
As for `CCO[C@@H]1C[C@@H]([C@H](C)C[C@@H]2CC[C@H](n3cc(COC(=O)NCCOCCOCCOCCC(=O)NCCOCCOCCOCCC(=O)NCCCCn4nc(-c5ccc6oc(N)nc6c5)c5c(N)ncnc54)nn3)[C@H](OC)C2)OC(=O)[C@@H]2CCCCN2C(=O)C(=O)[C@]2(O)O[C@@H](CC[C@H]2C)C[C@H](OC)/C(C)=C/C=C/C=C/[C@@H](C)C[C@@H](C)C(=O)[C@H](OC)[C@H](O)/C(C)=C/[C@H]1C` [Example 149], the results for the IC50 in assay [1], in assay [2] and in assay [3] were 1 to 10 nM, 31.6 to 1000 nM and 31.6 to 1000 nM, respectively.
For the molecule `CCO[C@@H]1C[C@@H]([C@H](C)C[C@@H]2CC[C@H](n3cc(COC(=O)NCCOCCOCCOCCC(=O)NCCOCCOCCOCCC(=O)NCCCCn4nc(-c5cc6cc(O)ccc6[nH]5)c5c(N)ncnc54)nn3)[C@H](OC)C2)OC(=O)[C@@H]2CCCCN2C(=O)C(=O)[C@]2(O)O[C@@H](CC[C@H]2C)C[C@H](OC)/C(C)=C/C=C/C=C/[C@@H](C)C[C@@H](C)C(=O)[C@H](OC)[C@H](O)/C(C)=C/[C@H]1C` [Example 150], the IC50 is 10 to 1000 nM in assay [1], 31.6 to 1000 nM in assay [2] and greater than 1000 nM in assay [3].
Regarding `CO/N=C1/C[C@@H]([C@H](C)C[C@@H]2CC[C@H](n3cc(COC(=O)NCCOCCOCCOCCC(=O)NCCOCCOCCC(=O)NCCCCn4nc(-c5ccc6oc(N)nc6c5)c5c(N)ncnc54)nn3)[C@H](OC)C2)OC(=O)[C@@H]2CCCCN2C(=O)C(=O)[C@]2(O)O[C@@H](CC[C@H]2C)C[C@H](OC)/C(C)=C/C=C/C=C/[C@@H](C)C[C@@H](C)C(=O)[C@H](OC)[C@H](O)/C(C)=C/[C@H]1C` [Example 151], the IC50 was 10 to 1000 nM in assay [1], 31.6 to 1000 nM in assay [2] and greater than 1000 nM in assay [3].
For `CO/N=C1/C[C@@H]([C@H](C)C[C@@H]2CC[C@H](n3cc(COC(=O)NCCOCCOCCOCCC(=O)NCCOCCOCCC(=O)NCCCCn4nc(-c5cc6cc(O)ccc6[nH]5)c5c(N)ncnc54)nn3)[C@H](OC)C2)OC(=O)[C@@H]2CCCCN2C(=O)C(=O)[C@]2(O)O[C@@H](CC[C@H]2C)C[C@H](OC)/C(C)=C/C=C/C=C/[C@@H](C)C[C@@H](C)C(=O)[C@H](OC)[C@H](O)/C(C)=C/[C@H]1C` [Example 152], in that order: 10 to 1000 nM, greater than 1000 nM and greater than 1000 nM.
